pKi: −log10 of the molar value. Read-outs that look alike come from different tables or passages of the source.

This note sets out measurements from patent US20240174671A1, “New 2,3-Dihydro-1H-pyrrolo[3,2-b]pyridine Derivatives as Sigma Ligands” (ACONDICIONAMIENTO TARRASENSE, priority 2021, published 2024).

In one experiment the target is T1, human σ1 receptor (Homo sapiens, UniProt Q99720).
T1 construct: expressed in transfected cells; host or cells: HEK-293
The experiment is described as follows: Human σ1 receptor radioligand assay ([3H](+)-pentazocine). The format is binding. An outline of the steps:
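Binding used [3H](+)-pentazocine, 120 min at 37° C, with non-specific binding defined by 10 μM haloperidol. Bound radioligand was collected by filtration, washed with ice-cold 10 mM Tris-HCl pH 7.4 and counted by scintillation.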

The next experiment addresses T2, human σ2/TMEM97 receptor (Homo sapiens, UniProt Q5BJF2).
T2 construct: expressed in transfected cells; host or cells: HEK-293
The experiment is described as follows: Binding assay to human σ2/TMEM97 receptor ([3H]-DTG). Particulars: transfected HEK-293 membranes, 10 nM [3H]-DTG, 25° C., 120 minutes; read-out: Binding σ-[…] (binding to σ2-receptor expressed as Ki). The method, boiled down: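 Membranes from transfected HEK-293 cells incubated with 10 nM [3H]-DTG in 50 mM Tris-HCl pH 8.0, 120 min at 25 °C; non-specific binding defined with 10 μM haloperidol. Bound radioactivity counted after filtration; compounds tested as % inhibition at 1 or 10 μM or at five concentrations for Ki.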

Setting [1] is: transfected HEK-293 membranes, 5 nM [3H](+)-pentazocine, 37° C., 120 minutes, read-out: Binding σ-[…] (binding to σ1-receptor expressed as Ki).

T1 sequence (Q99720 whole entry): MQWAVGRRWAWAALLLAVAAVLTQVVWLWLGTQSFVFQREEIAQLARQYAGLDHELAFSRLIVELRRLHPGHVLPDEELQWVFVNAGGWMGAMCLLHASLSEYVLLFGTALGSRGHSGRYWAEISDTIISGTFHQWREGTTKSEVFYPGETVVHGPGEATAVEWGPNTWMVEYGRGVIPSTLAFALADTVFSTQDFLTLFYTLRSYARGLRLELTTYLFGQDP
T2 sequence (Q5BJF2 whole entry): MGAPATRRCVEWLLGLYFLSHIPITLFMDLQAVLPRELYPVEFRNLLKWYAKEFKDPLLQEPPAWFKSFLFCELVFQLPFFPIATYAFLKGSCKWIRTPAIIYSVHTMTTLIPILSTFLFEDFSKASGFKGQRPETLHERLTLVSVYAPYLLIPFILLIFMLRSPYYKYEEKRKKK

Usually pKi stands for the negative decadic logarithm of the Ki, by convention in mol/L. Turning to `Cc1ccc2c(n1)C(C)(C)CN2C(=O)N1CCC2(CCN(C3CCOCC3)CC2)C1` [Example 110, (8-(tetrahydro-2H-pyran-4-yl)-2,8-diazaspiro[4.5]decan-2-yl)(3,3,5-trimethyl-2,3-dihydro-1H-pyrrolo[3,2-b]pyridin-1-yl)methanone], the pKi on human σ1 receptor (setting [1]) was less than 6.00; at human σ2/TMEM97 receptor, greater than 7.00.
Taken in the same sequence, the figures for `CN[C@H](CNC(=O)N1CC(C)(C)c2nc(C)ccc21)c1ccccc1` [Example 111, (S)-3,3,5-trimethyl-N-(2-(methylamino)-2-phenylethyl)-2,3-dihydro-1H-pyrrolo[3,2-b]pyridine-1-carboxamide] were 6.30 to 7.00 and less than 6.00.
The matching figures for `CN[C@@H](CNC(=O)N1CC(C)(C)c2nc(C)ccc21)c1ccccc1` [Example 112, (R)-3,3,5-trimethyl-N-(2-(methylamino)-2-phenylethyl)-2,3-dihydro-1H-pyrrolo[3,2-b]pyridine-1-carboxamide]: 6.30 to 7.00 and less than 6.00.
`CCN[C@@H](CNC(=O)N1CC(C)(C)c2nc(C)ccc21)c1ccccc1` [Example 113, (R)—N-(2-(ethylamino)-2-phenylethyl)-3,3,5-trimethyl-2,3-dihydro-1H-pyrrolo[3,2-b]pyridine-1-carboxamide]: the results for the pKi at human σ1 receptor and at human σ2/TMEM97 receptor were 6.30 to 7.00 and less than 6.00, respectively.
As to `Cc1ccc2c(n1)C(C)(C)CN2C(=O)N1CCC(N(C)Cc2ccc(F)cc2)CC1` [Example 114, (4-((4-fluorobenzyl)(methyl)amino)piperidin-1-yl)(3,3,5-trimethyl-2,3-dihydro-1H-pyrrolo[3,2-b]pyridin-1-yl)methanone], the pKi is 6.30 to 7.00 on human σ1 receptor (setting [1]) and greater than 7.00 at human σ2/TMEM97 receptor.
Taken in the same sequence, the figures for `Cc1ccc2c(n1)C(C)(C)CN2C(=O)N1CCC(NCc2ccccc2)CC1` [Example 115, (4-(benzylamino)piperidin-1-yl)(3,3,5-trimethyl-2,3-dihydro-1H-pyrrolo[3,2-b]pyridin-1-yl)methanone] were less than 6.00 and 6.30 to 7.00.
Turning to `Cc1ccc2c(n1)C(C)(C)CN2C(=O)N1CCC(N(C)Cc2cccc(F)c2)CC1` [Example 116, (4-((3-fluorobenzyl)(methyl)amino)piperidin-1-yl)(3,3,5-trimethyl-2,3-dihydro-1H-pyrrolo[3,2-b]pyridin-1-yl)methanone], the values for the pKi on human σ1 receptor (setting [1]) and at human σ2/TMEM97 receptor were 6.00 to 6.30 and greater than 7.00, respectively.
Regarding `Cc1ccc2c(n1)C(C)(C)CN2C(=O)N1CCC(N(C)Cc2ccc(C#N)cc2)CC1` [Example 117, 4-((methyl(1-(3,3,5-trimethyl-2,3-dihydro-1H-pyrrolo[3,2-t]pyridine-1-carbonyl)piperidin-4-yl)amino)methyl)benzonitrile], the pKi on human σ1 receptor (setting [1]) was 6.30 to 7.00; at human σ2/TMEM97 receptor it was greater than 7.00.
Turning to `Cc1ccc2c(n1)C(C)(C)CN2C(=O)N1CCC(N(C)Cc2cccc(C#N)c2)CC1` [Example 118, 3-((methyl(1-(3,3,5-trimethyl-2,3-dihydro-1H-pyrrolo[3,2-t]pyridine-1-carbonyl)piperidin-4-yl)amino)methyl)benzonitrile], the pKi was less than 6.00 at human σ1 receptor (setting [1]) and greater than 7.00 at human σ2/TMEM97 receptor.
Regarding `Cc1ccc2c(n1)C(C)(C)CN2C(=O)N1CCC(N(C)CC(C)C)CC1` [Example 119, (4-(isobutyl(methyl)amino)piperidin-1-yl)(3,3,5-trimethyl-2,3-dihydro-1H-pyrrolo[3,2-b]pyridin-1-yl)methanone], the pKi at human σ1 receptor (setting [1]) and on human σ2/TMEM97 receptor was 6.30 to 7.00 throughout.
As to `Cc1ccc2c(n1)C(C)(C)CN2C(=O)N1CCCCC(NCCC(C)C)C1` (stereo not drawn) [Example 120, (3-(Isopentylamino)azepan-1-yl)(3,3,5-trimethyl-2,3-dihydro-1H-pyrrolo[3,2-t]pyridin-1-yl)methanone], the results for the pKi on human σ1 receptor (setting [1]) and on human σ2/TMEM97 receptor were 6.00 to 6.30 and greater than 7.00, respectively.
For `CC(C)CCN[C@H]1CCCCN(C(=O)N2CCc3ncccc32)C1` [Example 121, (S)-(2,3-dihydro-1H-pyrrolo[3,2-b]pyridin-1-yl)(3-(isopentylamino)azepan-1-yl)methanone], the pKi on human σ1 receptor (setting [1]) and at human σ2/TMEM97 receptor was 6.30 to 7.00 each time.
